Reference: ChEMBL document CHEMBL3616395, “Discovery of 4-arylamido 3-methyl isoxazole derivatives as novel FMS kinase inhibitors” (Eur J Med Chem, 2015)
Activity calls are given as the source filed them.

Assays:
[1] = target: Epidermal growth factor receptor (Homo sapiens) (UniProt P00533); test: Inhibition of EGFR (unknown origin) at 10 uM after 40 mins by scintillation counting analysis
[2] = target: Mitogen-activated protein kinase 3 (Homo sapiens) (UniProt P27361); test: Inhibition of ErK1 (unknown origin) at 10 uM after 40 mins by scintillation counting analysis
Mitogen-activated protein kinase 3 (Homo sapiens), sequence (P27361 whole entry): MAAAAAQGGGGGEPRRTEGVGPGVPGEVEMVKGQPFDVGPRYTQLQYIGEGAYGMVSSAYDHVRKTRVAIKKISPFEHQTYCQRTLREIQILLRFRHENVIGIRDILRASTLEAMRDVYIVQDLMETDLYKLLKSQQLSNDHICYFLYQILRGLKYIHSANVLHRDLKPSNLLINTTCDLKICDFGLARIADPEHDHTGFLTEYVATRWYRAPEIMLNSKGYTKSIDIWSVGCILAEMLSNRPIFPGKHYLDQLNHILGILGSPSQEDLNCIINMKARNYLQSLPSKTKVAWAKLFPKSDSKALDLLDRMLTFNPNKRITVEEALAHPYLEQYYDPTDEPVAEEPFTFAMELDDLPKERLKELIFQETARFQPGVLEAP

[3] = target: Hepatocyte growth factor receptor (Homo sapiens) (UniProt P08581); test: Inhibition of c-MET (unknown origin) at 10 uM after 40 mins by scintillation counting analysis
Hepatocyte growth factor receptor (Homo sapiens), sequence (P08581 whole entry): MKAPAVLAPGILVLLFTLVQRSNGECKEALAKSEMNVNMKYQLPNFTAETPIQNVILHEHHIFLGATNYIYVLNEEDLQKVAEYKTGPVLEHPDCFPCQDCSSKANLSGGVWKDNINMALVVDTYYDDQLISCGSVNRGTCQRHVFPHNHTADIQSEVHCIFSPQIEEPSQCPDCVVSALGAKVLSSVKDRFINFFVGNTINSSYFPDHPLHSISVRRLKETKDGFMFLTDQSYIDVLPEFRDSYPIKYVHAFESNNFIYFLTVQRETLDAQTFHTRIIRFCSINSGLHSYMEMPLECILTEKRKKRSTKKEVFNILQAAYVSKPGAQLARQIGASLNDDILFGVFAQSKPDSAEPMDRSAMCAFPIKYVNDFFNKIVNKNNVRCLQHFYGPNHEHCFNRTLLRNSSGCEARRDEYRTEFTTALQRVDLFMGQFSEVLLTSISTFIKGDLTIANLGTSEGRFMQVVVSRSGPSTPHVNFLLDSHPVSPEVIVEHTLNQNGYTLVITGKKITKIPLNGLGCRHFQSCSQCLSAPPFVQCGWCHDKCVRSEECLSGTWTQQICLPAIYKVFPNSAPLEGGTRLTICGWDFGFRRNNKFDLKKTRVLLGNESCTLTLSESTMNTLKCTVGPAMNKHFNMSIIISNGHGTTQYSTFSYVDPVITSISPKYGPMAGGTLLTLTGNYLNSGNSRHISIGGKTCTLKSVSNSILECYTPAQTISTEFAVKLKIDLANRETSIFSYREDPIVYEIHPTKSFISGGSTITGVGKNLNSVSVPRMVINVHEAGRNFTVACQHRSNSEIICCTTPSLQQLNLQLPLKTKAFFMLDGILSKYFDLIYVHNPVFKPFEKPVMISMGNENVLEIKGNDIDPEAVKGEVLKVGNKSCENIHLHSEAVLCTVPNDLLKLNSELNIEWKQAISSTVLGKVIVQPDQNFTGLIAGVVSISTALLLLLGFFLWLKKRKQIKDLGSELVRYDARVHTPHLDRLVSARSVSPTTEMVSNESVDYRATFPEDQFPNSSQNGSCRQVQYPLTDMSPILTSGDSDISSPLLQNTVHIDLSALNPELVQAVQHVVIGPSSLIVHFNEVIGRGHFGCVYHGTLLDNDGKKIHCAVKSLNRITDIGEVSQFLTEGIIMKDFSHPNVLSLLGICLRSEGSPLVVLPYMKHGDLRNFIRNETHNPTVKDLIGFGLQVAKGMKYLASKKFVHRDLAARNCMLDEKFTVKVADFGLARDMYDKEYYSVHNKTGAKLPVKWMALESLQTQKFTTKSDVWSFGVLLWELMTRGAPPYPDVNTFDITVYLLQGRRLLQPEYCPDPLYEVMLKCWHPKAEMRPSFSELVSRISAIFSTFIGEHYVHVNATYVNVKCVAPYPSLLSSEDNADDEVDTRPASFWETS

[4] = target: Cyclin-dependent kinase 1/cyclin B (Homo sapiens) (UniProt P06493+P14635+Q8WWL7+O95067); test: Inhibition of CDK1/cyclin B (unknown origin) at 10 uM after 40 mins by scintillation counting analysis; format: protein-complex assay
[5] = target: Tyrosine-protein kinase HCK (Homo sapiens) (UniProt P08631); test: Inhibition of HCK (unknown origin) at 10 uM after 40 mins by scintillation counting analysis
Tyrosine-protein kinase HCK (Homo sapiens), sequence (P08631 2-526 limits assumed): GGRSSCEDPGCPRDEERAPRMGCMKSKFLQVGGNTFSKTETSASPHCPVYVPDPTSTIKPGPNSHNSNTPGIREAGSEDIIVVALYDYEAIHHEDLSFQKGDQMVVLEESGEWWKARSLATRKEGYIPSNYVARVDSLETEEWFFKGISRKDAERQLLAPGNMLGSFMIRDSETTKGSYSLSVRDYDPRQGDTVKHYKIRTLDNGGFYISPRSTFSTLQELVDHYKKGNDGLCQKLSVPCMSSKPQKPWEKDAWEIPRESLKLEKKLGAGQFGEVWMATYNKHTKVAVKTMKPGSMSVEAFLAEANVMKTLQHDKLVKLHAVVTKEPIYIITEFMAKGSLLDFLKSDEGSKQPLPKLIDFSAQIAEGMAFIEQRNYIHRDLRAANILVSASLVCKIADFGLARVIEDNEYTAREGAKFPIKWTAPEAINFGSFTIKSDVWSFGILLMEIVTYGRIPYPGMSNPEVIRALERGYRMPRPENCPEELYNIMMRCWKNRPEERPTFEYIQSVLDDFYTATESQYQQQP

[6] = target: Mitogen-activated protein kinase 10 (Homo sapiens) (UniProt P53779); test: Inhibition of JNK3 (unknown origin) at 10 uM after 40 mins by scintillation counting analysis
Mitogen-activated protein kinase 10 (Homo sapiens), sequence (P53779 whole entry): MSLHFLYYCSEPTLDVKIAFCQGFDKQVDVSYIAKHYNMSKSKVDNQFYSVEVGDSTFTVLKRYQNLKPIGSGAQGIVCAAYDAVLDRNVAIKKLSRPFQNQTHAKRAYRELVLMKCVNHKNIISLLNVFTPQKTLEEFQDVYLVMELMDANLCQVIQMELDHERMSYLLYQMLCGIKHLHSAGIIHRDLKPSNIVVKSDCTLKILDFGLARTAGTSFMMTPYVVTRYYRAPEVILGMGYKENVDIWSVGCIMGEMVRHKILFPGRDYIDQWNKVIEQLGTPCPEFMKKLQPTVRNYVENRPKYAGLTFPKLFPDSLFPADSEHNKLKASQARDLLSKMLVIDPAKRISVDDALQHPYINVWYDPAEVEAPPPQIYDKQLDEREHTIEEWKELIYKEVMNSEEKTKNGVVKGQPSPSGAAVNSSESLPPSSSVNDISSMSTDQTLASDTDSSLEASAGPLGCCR

[7] = target: Focal adhesion kinase 1 (Homo sapiens) (UniProt Q05397); test: Inhibition of FAK (unknown origin) at 10 uM after 40 mins by scintillation counting analysis
Focal adhesion kinase 1 (Homo sapiens), sequence (Q05397 2-1052 limits assumed): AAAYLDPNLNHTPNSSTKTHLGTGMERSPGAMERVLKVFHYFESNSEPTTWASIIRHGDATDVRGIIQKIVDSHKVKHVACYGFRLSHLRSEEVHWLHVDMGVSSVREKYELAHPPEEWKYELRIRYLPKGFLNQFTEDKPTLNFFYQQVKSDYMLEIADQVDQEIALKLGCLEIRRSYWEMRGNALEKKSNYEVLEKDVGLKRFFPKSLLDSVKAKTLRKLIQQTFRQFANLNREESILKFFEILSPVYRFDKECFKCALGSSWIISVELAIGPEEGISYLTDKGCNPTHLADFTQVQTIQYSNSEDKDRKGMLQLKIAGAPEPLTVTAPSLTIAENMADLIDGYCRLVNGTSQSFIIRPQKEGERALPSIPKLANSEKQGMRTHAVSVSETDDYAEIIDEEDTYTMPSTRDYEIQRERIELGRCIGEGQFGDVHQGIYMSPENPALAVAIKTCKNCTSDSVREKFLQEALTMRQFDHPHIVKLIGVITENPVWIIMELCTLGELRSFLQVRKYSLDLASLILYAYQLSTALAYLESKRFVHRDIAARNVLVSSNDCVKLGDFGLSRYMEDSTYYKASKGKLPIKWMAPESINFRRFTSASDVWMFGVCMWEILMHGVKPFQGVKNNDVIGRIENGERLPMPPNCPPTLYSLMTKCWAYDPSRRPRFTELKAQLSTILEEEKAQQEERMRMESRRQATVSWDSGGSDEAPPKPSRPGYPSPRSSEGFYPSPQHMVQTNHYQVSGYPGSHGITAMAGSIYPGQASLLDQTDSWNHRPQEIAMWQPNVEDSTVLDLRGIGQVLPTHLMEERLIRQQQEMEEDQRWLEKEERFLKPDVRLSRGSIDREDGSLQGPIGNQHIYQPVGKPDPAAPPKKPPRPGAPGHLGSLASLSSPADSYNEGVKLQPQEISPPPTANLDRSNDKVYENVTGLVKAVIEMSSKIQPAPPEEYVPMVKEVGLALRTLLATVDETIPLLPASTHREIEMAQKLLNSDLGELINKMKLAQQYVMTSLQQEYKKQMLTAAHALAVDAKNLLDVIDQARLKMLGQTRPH

[8] = target: Tyrosine-protein kinase ABL1 (Homo sapiens) (UniProt P00519); test: Inhibition of ABL1 (unknown origin) at 10 uM after 40 mins by scintillation counting analysis
[9] = target: Angiopoietin-1 receptor (Homo sapiens) (UniProt Q02763); test: Inhibition of TIE2 (unknown origin) at 10 uM after 40 mins by scintillation counting analysis
[10] = target: Cyclin-dependent kinase 2/cyclin E (Homo sapiens) (UniProt P24864+P24941+O96020); test: Inhibition of CDK2/cyclin E (unknown origin) at 10 uM after 40 mins by scintillation counting analysis; format: protein-complex assay

Measured: inhibition

Epidermal growth factor receptor (Homo sapiens), sequence (P00533 whole entry): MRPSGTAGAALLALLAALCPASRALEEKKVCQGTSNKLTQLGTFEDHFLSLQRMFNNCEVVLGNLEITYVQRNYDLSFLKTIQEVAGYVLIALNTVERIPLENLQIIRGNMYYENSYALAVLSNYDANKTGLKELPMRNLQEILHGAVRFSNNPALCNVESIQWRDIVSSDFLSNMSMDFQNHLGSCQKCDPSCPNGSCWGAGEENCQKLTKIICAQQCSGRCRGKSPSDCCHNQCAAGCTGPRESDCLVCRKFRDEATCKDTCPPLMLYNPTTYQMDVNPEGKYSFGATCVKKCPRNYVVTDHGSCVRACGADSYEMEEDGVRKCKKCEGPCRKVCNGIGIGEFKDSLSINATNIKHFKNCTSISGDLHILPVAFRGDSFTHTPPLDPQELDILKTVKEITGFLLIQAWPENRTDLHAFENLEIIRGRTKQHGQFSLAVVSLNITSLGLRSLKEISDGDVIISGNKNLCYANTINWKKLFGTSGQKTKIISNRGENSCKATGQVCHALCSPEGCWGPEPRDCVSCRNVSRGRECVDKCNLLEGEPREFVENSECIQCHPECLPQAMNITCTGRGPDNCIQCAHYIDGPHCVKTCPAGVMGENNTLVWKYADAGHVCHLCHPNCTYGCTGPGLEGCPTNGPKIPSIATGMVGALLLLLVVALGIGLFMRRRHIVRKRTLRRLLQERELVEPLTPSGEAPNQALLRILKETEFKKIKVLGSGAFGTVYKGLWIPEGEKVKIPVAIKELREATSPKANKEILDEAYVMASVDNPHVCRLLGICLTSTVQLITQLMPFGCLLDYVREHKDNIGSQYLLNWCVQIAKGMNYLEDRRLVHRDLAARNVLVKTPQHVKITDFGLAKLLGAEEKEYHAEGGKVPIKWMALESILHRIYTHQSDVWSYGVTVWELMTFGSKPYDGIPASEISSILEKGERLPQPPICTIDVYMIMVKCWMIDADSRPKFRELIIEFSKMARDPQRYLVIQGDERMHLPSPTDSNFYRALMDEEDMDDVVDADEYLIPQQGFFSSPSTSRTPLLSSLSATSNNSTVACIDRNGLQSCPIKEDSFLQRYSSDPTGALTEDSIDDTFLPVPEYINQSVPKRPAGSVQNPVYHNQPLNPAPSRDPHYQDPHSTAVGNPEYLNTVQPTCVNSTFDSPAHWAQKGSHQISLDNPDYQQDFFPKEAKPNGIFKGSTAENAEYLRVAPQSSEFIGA

Cc1ccccc1C(=O)Nc1cnoc1C
inactive: all assays above
